This note sets out measurements from patent publication US20240150377A1, “MODULATORS OF CYSTIC FIBROSIS TRANSMEMBRANE CONDUCTANCE REGULATOR” (VERTEX PHARMACEUTICALS INCORPORATED, priority 2020, published 2024).

This experiment deals with CFTR (Homo sapiens, UniProt P13569). The experiment in a line: Membrane potential dye, Enteroid Assay B. Format: cell-based. The conditions noted are these: for EC50: read-out: Ent. B EC50; for Ent. B Max Activity: chloride transport as % of triple combination control (Enteroid Assay B). The procedure, abridged: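 Fluorescence read over 15 min after chloride-free stimulation (10 μM forskolin, 100 μM IBMX, 300 nM Compound III) gave chloride transport, reported as % activity versus a triple-corrector/potentiator control. Beforehand, human enteroid cells had 18-24 h compound exposure at 37° C and 25 min methyl oxonol dye loading at room temperature.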
CFTR, sequence (P13569 with tags, fused parts or gaps DEL508-508): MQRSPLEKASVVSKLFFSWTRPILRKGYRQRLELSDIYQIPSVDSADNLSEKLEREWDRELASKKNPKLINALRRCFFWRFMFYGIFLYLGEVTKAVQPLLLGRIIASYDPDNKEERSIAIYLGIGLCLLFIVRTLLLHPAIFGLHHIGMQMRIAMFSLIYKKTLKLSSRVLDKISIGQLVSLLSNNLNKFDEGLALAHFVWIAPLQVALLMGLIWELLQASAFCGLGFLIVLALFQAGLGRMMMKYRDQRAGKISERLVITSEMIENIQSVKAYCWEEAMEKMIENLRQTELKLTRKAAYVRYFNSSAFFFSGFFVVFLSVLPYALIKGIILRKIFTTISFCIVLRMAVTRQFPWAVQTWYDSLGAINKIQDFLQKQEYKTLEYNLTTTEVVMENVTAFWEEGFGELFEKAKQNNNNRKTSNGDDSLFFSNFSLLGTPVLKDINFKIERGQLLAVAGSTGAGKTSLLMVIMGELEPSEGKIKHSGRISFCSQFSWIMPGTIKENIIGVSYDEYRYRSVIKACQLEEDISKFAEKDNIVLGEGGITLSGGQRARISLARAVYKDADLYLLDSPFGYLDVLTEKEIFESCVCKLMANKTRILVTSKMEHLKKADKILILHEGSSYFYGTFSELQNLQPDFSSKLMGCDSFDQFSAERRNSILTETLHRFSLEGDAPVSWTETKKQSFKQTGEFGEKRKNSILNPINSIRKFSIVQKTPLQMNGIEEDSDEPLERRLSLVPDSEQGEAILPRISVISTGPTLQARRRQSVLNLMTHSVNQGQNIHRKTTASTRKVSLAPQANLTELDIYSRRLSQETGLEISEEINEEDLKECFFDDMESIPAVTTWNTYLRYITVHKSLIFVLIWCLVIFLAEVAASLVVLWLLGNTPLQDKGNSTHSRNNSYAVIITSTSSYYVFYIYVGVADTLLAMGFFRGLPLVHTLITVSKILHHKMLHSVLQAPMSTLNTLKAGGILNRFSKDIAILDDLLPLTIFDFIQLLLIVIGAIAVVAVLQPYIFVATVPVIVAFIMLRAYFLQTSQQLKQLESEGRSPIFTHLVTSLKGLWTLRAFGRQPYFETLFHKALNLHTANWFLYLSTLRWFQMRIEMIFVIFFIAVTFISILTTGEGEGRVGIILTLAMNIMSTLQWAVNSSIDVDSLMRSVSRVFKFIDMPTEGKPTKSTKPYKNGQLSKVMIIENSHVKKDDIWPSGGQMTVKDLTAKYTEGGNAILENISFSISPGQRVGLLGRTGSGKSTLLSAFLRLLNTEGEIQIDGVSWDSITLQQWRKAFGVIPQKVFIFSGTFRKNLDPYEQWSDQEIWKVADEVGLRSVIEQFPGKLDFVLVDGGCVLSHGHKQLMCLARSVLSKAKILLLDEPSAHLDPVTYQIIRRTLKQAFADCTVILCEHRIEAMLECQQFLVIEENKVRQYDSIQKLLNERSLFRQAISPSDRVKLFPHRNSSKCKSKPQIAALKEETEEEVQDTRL

Setting [1] is: Table 8, human enteroid cells, 18-24 hours, acute 10 μM forskolin and 300 nM ivacaftor.

The structures appear in SMILES notation. Read-outs that look alike come from different tables or passages of the source.

Usually EC50 stands for the midpoint of the concentration-response curve. For the compound `Cc1cccc(C)c1-c1cc2nc(n1)NS(=O)(=O)c1cccc(c1)C(=O)N(CC1CC(O)(Cc3ccccc3)C1)[C@H](CC(C)(C)C)CO2` (single isomer, unassigned) [Compound 68], for the setting “Table 9”, the “Ent. B Max Activity (%)” value is given as “+++ (+++ is >600%)” and the EC50 is less than 1000 nM.

As to `Cc1cccc(C)c1-c1cc2nc(n1)NS(=O)(=O)c1cccc(c1)C(=O)N(Cc1ccc(NC(=O)OC(C)C)cc1)[C@H](CC(C)(C)C)CO2` [Compound 508], under “Table 8”, the “Ent. B Max Activity” value is given as “+++ (+++ is >60%)”. For the same compound, the EC50 under setting [1] was less than 1000 nM.

Turning to `Cc1cccc(C)c1-c1cc2nc(n1)NS(=O)(=O)c1cccc(c1)C(=O)N(Cc1cnc(C(C)(C)C)nc1)[C@H](CC(C)(C)C)CO2` [Compound 788], where the note is “Table 9”, the “Ent. B Max Activity (%)” value was “+++ (+++ is >600%)” and the EC50 is less than 1000 nM.

As for `Cc1cccc(C)c1-c1cc2nc(n1)NS(=O)(=O)c1cccc(c1)C(=O)N(Cc1ccc(-c3cn[nH]c3)cc1)[C@H](CC(C)(C)C)CO2` [Compound 317], where the note is “Table 9”, the “Ent. B Max Activity (%)” value is “+++ (+++ is >600%)” and the EC50 is less than 1000 nM.

For the compound `COC(=O)Nc1cccc(CN2C(=O)c3cccc(c3)S(=O)(=O)Nc3nc(cc(-c4c(C)cccc4C)n3)OC[C@H]2CC(C)(C)C)c1` [Compound 506], the “Ent. B Max Activity” value (Table 8) is “+++ (+++ is >60%)”. Under setting [1], the EC50 is less than 1000 nM.

Take `Cc1cccc(C)c1-c1cc2nc(n1)NS(=O)(=O)c1cccc(c1)C(=O)N(Cc1cnc(O)nc1)[C@H](CC(C)(C)C)CO2` [Compound 1096]: the “Ent. B Max Activity” value (Table 8) is reported as “+ (+ is <30%)”.

As for `Cc1cccc(C)c1-c1cc2nc(n1)NS(=O)(=O)c1cc(n(C)n1)C(=O)N(Cc1ccccc1)[C@H](CC(C)(C)C)CO2` [Compound 926], for the setting “Table 8”, the “Ent. B Max Activity” value is recorded as “++ (++ is 30-60%)”. The EC50 under setting [1] lay within 3000 to 30000 nM.

For the compound `Cc1cccc(C)c1-c1cc2nc(n1)NS(=O)(=O)c1cccc(c1)C(=O)N(Cc1ccc(CC(=O)N(C)C)cc1)[C@H](CC(C)(C)C)CO2` [Compound 845], where the note is “Table 9”, the “Ent. B Max Activity (%)” value is given as “+++ (+++ is >600%)” and the EC50 was less than 1000 nM.

Regarding `Cc1cccc(C)c1-c1cc2nc(n1)NS(=O)(=O)c1cccc(c1)C(=O)N(CCCNC(=O)OC(C)C)[C@H](CC(C)C)CO2` [Compound 408], the “Ent. B Max Activity” value (Table 7) was “+++ (+++ is >60%)”. Further, the EC50 (Table 7, human enteroid cells, 18-24 hours, acute 10 μM forskolin and 300 nM ivacaftor) was less than 1000 nM.

For `Cc1cccc(C)c1-c1cc2nc(n1)NS(=O)(=O)c1cccc(c1)C(=O)N(Cc1ccncn1)[C@H](CC(C)(C)C)CO2` [Compound 1098], the “Ent. B Max Activity” value (Table 8) was “+++ (+++ is >60%)”. In addition, the EC50 under setting [1] is less than 1000 nM.

Take `Cc1cccc(C)c1-c1cc2nc(n1)NS(=O)(=O)c1cccc(c1)C(=O)N(CCCOC(F)(F)F)[C@H](CC(C)C)CO2` [Compound 42, (11R)-6-(2,6-Dimethylphenyl)-11-isobutyl-2,2-dioxo-12-[3-(trifluoromethoxy)propyl]-9-oxa-2λ^6-thia-3,5,12,19-tetrazatricyclo[12.3.1.14,8]nonadeca-1(18),4(19),5,7,14,16-hexaen-13-one]: for the setting “Table 8”, the “Ent. B Max Activity” value is “+++ (+++ is >60%)”. The EC50 under setting [1] is less than 1000 nM.

As for `Cc1cccc(C)c1-c1cc2nc(n1)NS(=O)(=O)c1cccc(c1)C(=O)N(C[C@H]1CC[C@@H](C(C)(C)O)CC1)[C@H](CC(C)(C)C)CO2` [Compound 796], for the setting “Table 9”, the “Ent. B Max Activity (%)” value is “+++ (+++ is >600%)” and the EC50 is less than 1000 nM.

Regarding `Cc1cccc(C)c1-c1cc2nc(n1)NS(=O)(=O)c1cccc(n1)C(=O)N(Cc1ccc(C(C)(C)O)cc1)[C@H](CC(C)(C)C)CO2` [Compound 1092], for the setting “Table 8”, the “Ent. B Max Activity” value is reported as “+++ (+++ is >60%)”. The EC50 under setting [1] was less than 1000 nM.

`Cc1cccc(C)c1-c1cc2nc(n1)NS(=O)(=O)c1cccc(c1)C(=O)N(CCS(C)(=O)=O)[C@H](CC(C)C)CO2` [Compound 388]: for the setting “Table 9”, the “Ent. B Max Activity (%)” value is “+++ (+++ is >600%)” and the EC50 was less than 1000 nM.

On to `Cc1cccc(C)c1-c1cc2nc(n1)NS(=O)(=O)c1cccc(c1)C(=O)N(Cc1cnccn1)[C@H](CC(C)(C)C)CO2` [Compound 1100], for which, where the note is “Table 8”, the “Ent. B Max Activity” value is “+++ (+++ is >60%)”. Moreover, the EC50 under setting [1] is less than 1000 nM.

On to `Cc1cccc(C)c1-c1cc2nc(n1)NS(=O)(=O)c1cccc(c1)C(=O)N(CC1CC(O)(Cc3ccccc3)C1)[C@H](CC(C)(C)C)CO2` (single isomer, unassigned) [Compound 67], for which, where the note is “Table 9”, the “Ent. B Max Activity (%)” value is given as “+++ (+++ is >600%)” and the EC50 was less than 1000 nM.

On to `Cc1cccc(C)c1-c1cc2nc(n1)NS(=O)(=O)c1cccc(c1)C(=O)N(CCC(C)(C)C(C)(C)O)[C@H](CC(C)(C)C)CO2` [Compound 334], for which, under “Table 8”, the “Ent. B Max Activity” value was “+++ (+++ is >60%)”. Moreover, the EC50 under setting [1] was less than 1000 nM.

For the compound `Cc1cccc(C)c1-c1cc2nc(n1)NS(=O)(=O)c1cccc(c1)C(=O)N(Cc1ccc(C(N)=O)cn1)[C@H](CC(C)(C)C)CO2` [Compound 398], the “Ent. B Max Activity” value (Table 8) is “+++ (+++ is >60%)”. In addition, the EC50 under setting [1] is less than 1000 nM.

For `Cc1cccc(C)c1-c1cc2nc(n1)NS(=O)(=O)c1cccc(c1)C(=O)N(C[C@H]1C[C@@H](C(C)(C)O)C1)[C@H](CC(C)(C)C)CO2` [Compound 335], the “Ent. B Max Activity” value (Table 8) is “+++ (+++ is >60%)”. Under setting [1], the concentration for a half-maximal effect (EC50) is less than 1000 nM.

Consider `Cc1cccc(C)c1-c1cc2nc(n1)NS(=O)(=O)c1cccc(c1)C(=O)N(CCc1ccc(C(=O)N(C)C)cc1)[C@H](CC(C)(C)C)CO2` [Compound 394], for which the “Ent. B Max Activity” value (Table 8) is given as “+++ (+++ is >60%)”. Also, the EC50 under setting [1] is less than 1000 nM.

Turning to `Cc1cccc(C)c1-c1cc2nc(n1)NS(=O)(=O)c1cccc(c1)C(=O)N(CC13CC(C(C)(C)O)(C1)C3)[C@H](CC(C)(C)C)CO2` [Compound 69, (11R)-6-(2,6-Dimethylphenyl)-11-(2,2-dimethylpropyl)-12-[[3-(1-hydroxy-1-methyl-ethyl)-1-bicyclo[1.1.1]pentanyl]methyl]-2,2-dioxo-9-oxa-2λ^6-thia-3,5,12,19-tetrazatricyclo[12.3.1.14,8]nonadeca-1(18),4(19),5,7,14,16-hexaen-13-one], under “Table 9”, the “Ent. B Max Activity (%)” value is reported as “+++ (+++ is >600%)” and the EC50 is less than 1000 nM.

Take `Cc1cccc(C)c1-c1cc2nc(n1)NS(=O)(=O)c1cccc(c1)C(=O)N(Cc1ccc3c(c1)CC(C)(C)O3)[C@H](CC(C)(C)C)CO2` [Compound 798]: for the setting “Table 9”, the “Ent. B Max Activity (%)” value was “+++ (+++ is >600%)” and the EC50 is less than 1000 nM.

Consider `Cc1cccc(C)c1-c1cc2nc(n1)NS(=O)(=O)c1cc(nn1C)C(=O)N(Cc1ccncn1)[C@H](CC(C)(C)C)CO2` [Compound 932], for which the “Ent. B Max Activity” value (Table 8) is listed as “+ (+ is <30%)”. In addition, under setting [1], the EC50 was less than 1000 nM.

For `Cc1cccc(C)c1-c1cc2nc(n1)NS(=O)(=O)c1cccc(n1)C(=O)N(Cc1ccccn1)[C@H](CC(C)(C)C)CO2` [Compound 1084], where the note is “Table 8”, the “Ent. B Max Activity” value is “+++ (+++ is >60%)”. Also, under setting [1], the EC50 is less than 1000 nM.

For the compound `CC(=O)Nc1cccc(CN2C(=O)c3cccc(c3)S(=O)(=O)Nc3nc(cc(-c4c(C)cccc4C)n3)OC[C@H]2CC(C)(C)C)n1` [Compound 391], for the setting “Table 9”, the “Ent. B Max Activity (%)” value is given as “+++ (+++ is >600%)” and the EC50 is less than 1000 nM.

As for `Cc1cccc(C)c1-c1cc2nc(n1)NS(=O)(=O)c1cccc(c1)C(=O)N(C)CC(c1ccc(CC3(C(F)(F)F)CC3)cn1)O2` (single isomer, unassigned) [Compound 104, 6-(2,6-dimethylphenyl)-12-methyl-10-(5-{[1-(trifluoromethyl)cyclopropyl]methyl}pyridin-2-yl)-9-oxa-2λ^6-thia-3,5,12,19-tetraazatricyclo[12.3.1.14,8]nonadeca-1(17),4(19),5,7,14(18),15-hexaene-2,2,13-trione], for the setting “Table 8”, the “Ent. B Max Activity” value is “+++ (+++ is >60%)”. Also, under setting [1], the EC50 is less than 1000 nM.

`Cc1cccc(C)c1-c1cc2nc(n1)NS(=O)(=O)c1cccc(c1)C(=O)N([C@H](C)c1ccccc1)[C@H](CC(C)(C)C)CO2` [Compound 1079]: the “Ent. B Max Activity” value (Table 8) was “+++ (+++ is >60%)”. In addition, the EC50 under setting [1] is less than 1000 nM.

For `Cc1cccc(C)c1-c1cc2nc(n1)NS(=O)(=O)c1cccc(c1)C(=O)N(CC(C)(C)C)[C@H](CC(C)C)CO2` [Compound 400], the “Ent. B Max Activity” value (Table 8) was “++ (++ is 30-60%)”. Also, under setting [1], the EC50 is less than 1000 nM.

For the compound `CNC(=O)c1ccc(CCN2C(=O)c3cccc(c3)S(=O)(=O)Nc3nc(cc(-c4c(C)cccc4C)n3)OC[C@H]2CC(C)(C)C)cc1` [Compound 395], the “Ent. B Max Activity” value (Table 8) was “++ (++ is 30-60%)”. Moreover, under setting [1], the EC50 was less than 1000 nM.

As to `Cc1cccc(C)c1-c1cc2nc(n1)NS(=O)(=O)c1cc(nn1C)C(=O)N(Cc1ccc(C(C)(C)O)cc1)[C@H](CC(C)(C)C)CO2` [Compound 927], the “Ent. B Max Activity” value (Table 8) is on record as “++ (++ is 30-60%)”. Besides, under setting [1], the EC50 is less than 1000 nM.

For the compound `Cc1cccc(C)c1-c1cc2nc(n1)NS(=O)(=O)c1cccc(c1)C(=O)N(Cc1ccc(C3CNCN3C)cc1)[C@H](CC(C)(C)C)CO2` (some centres unmarked) [Compound 316], the “Ent. B Max Activity (%)” value (Table 9) is “+++ (+++ is >600%)”.

Take `Cc1cccc(C)c1-c1cc2nc(n1)NS(=O)(=O)c1cccc(c1)C(=O)N(CC1CC(C)(O)C1)[C@H](CC(C)(C)C)CO2` (some centres unmarked) [Compound 664]: the “Ent. B Max Activity” value (Table 8) was “+++ (+++ is >60%)”. Moreover, under setting [1], the EC50 is less than 1000 nM.
